The results in this text go back to patent US7247734B2 (Vernalis (Cambridge) Limited, priority 2001, dated 2007).

The test concerns HSP70 and client protein (CDK4) expression in HT29 cells. Put plainly: Western blotting of HSP70 and CDK4 in HT29 cells. The test is classed as cell-based, human. The note with it: 24 hours, various concentrations. Here is the method:
The cellular effects of HSP90 inhibitors can be measured using a number of molecular markers. As already mentioned, HSP90 inhibition leads to the depletion of several important cellular signalling proteins. […] Depletion is normally observed by 6 h, with maximum depletion occurring at 24 h. As well as RAF-1, depletion of several other HSP90 client proteins can be measured by immunoblotting e.g., CDK4, ERBB2. However, it is important to note that some of these proteins are cell line specific e.g., ERBB2 is expressed mainly in breast, thyroid, kidney and some ovarian tumour cell lines. Another very important marker of HSP90 inhibition is heat shock protein 70 (HSP70). A HSF-1 (heatshock factor 1) dependent increase in HSP70 levels has been reported by us and other groups (see, e.g., Whitesell et al., 1994; Clarke et al., 2000) and this effect can serve as a positive indicator of HSP90 inhibitor action. The immunoblotting method described is based on standard techniques but is described in detail for ease of reference.
Prepare as required and store at −20° C. • (4) Bicinchoninic acid (BCA) protein assay reagents (PerBio Science UK, Ltd., Chester, UK). • (5) Casein blocking buffer (0.5% casein, 0.02% thimerosal, in PBS). Store at 4° C. for up to 2 weeks. • (6) Wash buffer (phosphate buffered saline, PBS) containing 0.05% Tween 20). • (7) Tris-glycine gradient polyacrylamide precast gels (4–20%) (1 mm thick) (Novex, InVitrogen, Groningen, NL). • (8) Nitro-cellulose membrane (0.2 μm pore size) (InVitrogen, Groningen, NL). • (9) Ponceau Red stain (2% w/v in 30% TCA/30% […], Sigma Aldrich Ltd., Pool, UK). • (10) Enhanced chemiluminescence (SuperSignal) reagents (PerBio Science UK, Ltd., Chester, UK). • (11) Photographic film (Hyperfilm ECL, Amersham Pharmacia Biotech, Little Chalfont, Bucks, UK). Method
The following protocol was used: • (1) Lyse cells (approx 4×10^6) in 100 μl lysis buffer for 30 minutes on ice. When adding the lysis buffer, shear cells by pipetting up and down using a Gilson P200 pipette. • (2) Spin lysates for 10 min at 13,000 rpm at 4° C., retrieve supernatant and store at −70° C. • (3) Determine protein concentration using BCA protein assay reagents. • (4) Load samples of cell lysates (50 μg protein/lane) onto gel and separate proteins by SDS-polyacrylamide gel electrophoresis (SDS-PAGE) using a 4–20% Tris-glycine gel. • (5) Transfer proteins to nitrocellulose membrane using optimum conditions for the equipment available. For example, 150 mA for 2 h using the Mighty Small transfer system (Hoeffer TE22 Mini Tank Transphor Unit, Amersham Pharmacia Biotech, Little Chalfont, Bucks, UK). […]
Comments • (1) The protein bands are normally evaluated visually. […]

`CCc1cc(-c2n[nH]c(C)c2-c2ccc3c(c2)OCCO3)c(O)cc1O` [CCT018159, 4-[4-(2,3-Dihydro-benzo[1,4]dioxin-6-yl)-5-methyl-1H-pyrazol-3-yl]-6-ethyl-benzene-1,3-diol]: the “CDK4 client protein expression (immunoblot)” value is recorded as “depleted” and the “HSP70 expression (immunoblot)” value was “elevated HSP70 expression”.
